Laboratory results reported in patent publication US5681846A (priority 1995, dated 1997).
Entries after “also recorded” stand apart in the source; their conditions may differ. Like-named read-outs stand apart in the source and are kept apart here.

How the values were obtained:
[1] = format: physicochemical; conditions: for Precipitation Time (earliest among triplicate samples): Cremophor EL 8.3%
Description: Physical stability testing of extended stability formulations has been evaluated for the effects of changing alcohol concentration on precipitation times in infusion solutions.
In the 15 to 20% range, the time to precipitation varied from about 9 to 14 days in most samples. […] Within the 15 to 20% group, however, the time to precipitation was variable and not linearly related to alcohol content.
^a Cremophor ® EL concentration held constant at 8.3%, the same a
^b Earliest precipitation among triplicate samples.

[2] = Visual examination of paclitaxel test solutions (physical compatibility); format: physicochemical; set-up: key to Visual observation: --: Light blue hazy solution free of particulate matter; conditions: for Visual observation, all samples: days 1 and 3
Protocol: (§1) Aliquots were removed from each bag initially and after 1, 3, 5, and 7 days and stored in 2-ml sterile vials at -70° C. Grossly precipitated solutions were assayed after 31 days of storage. Duplicate HPLC determinations were performed on the aliquots from each test solution.
(§2) Physical compatibility was evaluated by visual examination and turbidimetric quantification. […] The tubes and caps were triple-washed in high-performance liquid chromatography-grade water and rinsed exteriorly with ethanol. To minimize the effects of scratches and imperfections in the glass, a thin layer of silicone oil was applied to the exterior of the culture tubes.
Visual examination of the samples was performed with the unaided eye in normal laboratory fluorescent light. Samples with no obvious visual incompatibility were further examined using a Tyndall beam (high-intensitymonodirectional light source)(Dolan-Jenner, Woburn, Mass.). The test tubes were illuminated from below and viewed at a 90° angle against a dark background to enhance the visibility of small particles.
(§3) Visual inspections and turbidimetric assessments were performed initially and after 1, 3, 5, 7, 14, and 31 days of storage at each temperature protected from light.

[3] = Turbidimetric assessment of paclitaxel test solutions; format: physicochemical; conditions: during the study
Protocol: as §1, §2
Turbidimetric assessments of the normally hazy paclitaxel solutions were made using a color-correcting turbidimeter (Hatch, Loveland, Colo.). The turbidimeter was calibrated in the manner described previously (Trissel et al., 1992). Triplicate determinations were made for each sample; the turbidimeter was allowed to return to zero between determinations. Incompatibility has been defined as an increase in turbidity of 0.5 nephelometric turbidity unit (NTU) or more (Trissel et al., 1993).
as §3

[4] = Chemical stability of paclitaxel in infusion solutions by HPLC; format: physicochemical; conditions: 0.1 and 1 mg/mL; D5W and 0.9% NaCl
Protocol: The liquid chromatograph consisted of a multisolvent delivery pump (Waters Chromatography, Milford, Mass.), a programmable multiple-wavelength ultraviolet light detector (Waters), a WISP autosampler,(Waters) and a HPLC analytical column (Vydac, Hesperia, Calif.) (250×4.6 mm, 5 μm particle size). The system was controlled and integrated by a personal computer (NEC, Boxborough, Mass.). The mobile phase consisted of 53% acetonitrile in water. The flow rate was 1.5 ml/min and detection was performed at 254 nm. […] Sample aliquots were filtered through 5 μm filter needle.
Precision expressed as percent relative standard deviation was 0.76%. Calibration curves were constructed from a linear plot of peak area versus concentration (0,025 to 0.15 mg/mL). […] The intra-day and inter-day coefficients of variation were 1.4% and 2.0%, respectively.
Aliquots were removed from each bag initially and after 1, 3, 5, and 7 days and stored in 2-ml sterile vials at -70° C. […] Duplicate HPLC determinations were performed on the aliquots from each test solution.

[5] = system: tubulin; conditions: cited from earlier work
[6] = system: cell replication; conditions: in vitro; cited from earlier work
[7] = system: lymphoma, breast cancer; conditions: cited from earlier work
[8] = cited from earlier work

For `CC(=O)O[C@H]1C(=O)[C@@]2(C)[C@H]([C@H](OC(=O)c3ccccc3)[C@]3(O)C[C@H](OC(=O)[C@H](O)[C@@H](NC(=O)c4ccccc4)c4ccccc4)C(C)=C1C3(C)C)[C@]1(OC(C)=O)CO[C@@H]1C[C@@H]2O` [paclitaxel], the “Precipitation Time (earliest among triplicate samples)” value (shortened to “Precipitation Time”) ([1]; 1 mg/mL in D5W, alcohol 15%) was 14 days, the “Precipitation Time” value ([1]; 1 mg/mL in D5W, alcohol 16%) was 12 days and the “Precipitation Time” value ([1]; 1 mg/mL in D5W, alcohol 17%) was 10 days. The “Precipitation Time” value ([1]; 1 mg/mL in D5W, alcohol 18%) was 12 days, the “Precipitation Time” value ([1]; 1 mg/mL in D5W, alcohol 19%) was 9 days and the “Precipitation Time” value ([1]; 1 mg/mL in D5W, alcohol 20%) was 9 days. The gross precipitation ([1]; 1 mg/mL in D5W, alcohol 25%) was 21 days, the “Precipitation Time” value ([1]; 1 mg/mL in D5W, alcohol 25%) was 14 days and the earliest microprecipitation ([1]; 1 mg/mL in D5W, alcohol 25%, one sample) was 14 days. For the same compound, the “Precipitation Time” value ([1]; 1 mg/mL in D5W, alcohol 30%) was > 60 days, the “storage time without precipitation or microcrystals” value ([1]; 1 mg/mL in D5W, alcohol 30 and 50%, any sample) was > 60 days and the “Precipitation Time” value ([1]; 1 mg/mL in D5W, alcohol 50%) was > 60 days. For the same compound, the “precipitation among triplicate samples” value ([1]; alcohol 19% and 20% (footnote c)) was “One sample precipitated at 9 days, 2 samples at 14 days or more”, the “precipitation among triplicate samples” value ([1]; alcohol 25% (footnote d)) was “One sample did not precipitated after 60 days” and the “precipitation among triplicate samples” value ([1]; alcohol 30% and 50% (footnote e)) was “All three samples were still in solution after 60 days”. The “precipitation observed visually / by Tyndall beam” value ([2]; 0.1 and 1 mg/mL, D5W and 0.9% NaCl) was “all samples were initially free of particulate matter but had paclitaxel's normal haze; also recorded: Large amounts of white flocculent precipitate appeared after 31 days of storage in many of the samples and after 14 days in a few samples; also recorded: Two samples had small amounts of crystalline precipitate within five days of storage; also recorded: Most samples had crystalline precipitation within a week”, the “chemical stability and physical compatibility time” value ([2]; 0.1 and 1 mg/mL, D5W and 0.9% NaCl, 4, 22, 32 °C) was “All samples remained compatible in both infusion solutions for at least three days; also recorded: chemically stable and physically compatible for three days” and the Visual observation ([2]; 0.9% NaCl, 0.1 mg/mL, 4 °C, day 0) was “--”. The Visual observation ([2]; 0.9% NaCl, 0.1 mg/mL, 4 °C, day 7) was “Tiny crystals”, the Visual observation ([2]; 0.9% NaCl, 0.1 mg/mL, 22 °C, day 0) was “--” and the Visual observation ([2]; 0.9% NaCl, 0.1 mg/mL, 22 °C, day 5) was “--”. The Visual observation ([2]; 0.9% NaCl, 0.1 mg/mL, 22 °C, day 7) was “Tiny crystals”, the Visual observation ([2]; 0.9% NaCl, 0.1 mg/mL, 32 °C, day 0) was “--” and the Visual observation ([2]; 0.9% NaCl, 0.1 mg/mL, 32 °C, day 5) was “--”. The Visual observation ([2]; 0.9% NaCl, 0.1 mg/mL, 32 °C, day 7) was “Tiny crystals”, the Visual observation ([2]; 0.9% NaCl, 1 mg/mL, 4 °C, day 0) was “--” and the Visual observation ([2]; 0.9% NaCl, 1 mg/mL, 4 °C, day 5) was “--”. For the same compound, the Visual observation ([2]; 0.9% NaCl, 1 mg/mL, 4 °C, day 7) was “Tiny crystals”, the Visual observation ([2]; 0.9% NaCl, 1 mg/mL, 22 °C, day 0) was “--” and the Visual observation ([2]; 0.9% NaCl, 1 mg/mL, 22 °C, day 5) was “--”. For the same compound, the Visual observation ([2]; 0.9% NaCl, 1 mg/mL, 22 °C, day 7) was “Tiny crystals”, the Visual observation ([2]; 0.9% NaCl, 1 mg/mL, 32 °C, day 0) was “--” and the Visual observation ([2]; 0.9% NaCl, 1 mg/mL, 32 °C, day 5) was “--”. The Visual observation ([2]; 0.9% NaCl, 1 mg/mL, 32 °C, day 7) was “Tiny crystals”, the Visual observation ([2]; 0.9% NaCl, 1 mg/mL, 32 °C, day 14) was “Tiny crystals” and the “Visual observation, all samples” value ([2]; 0.9% NaCl) was “particulatefree”. For the same compound, the Visual observation ([2]; 5% dextrose, 0.1 mg/mL, 4 °C, day 0) was “--”, the Visual observation ([2]; 5% dextrose, 0.1 mg/mL, 4 °C, day 5) was “--” and the Visual observation ([2]; 5% dextrose, 0.1 mg/mL, 4 °C, day 7) was “--”. The Visual observation ([2]; 5% dextrose, 0.1 mg/mL, 4 °C, day 14) was “--”, the Visual observation ([2]; 5% dextrose, 0.1 mg/mL, 22 °C, day 0) was “--” and the Visual observation ([2]; 5% dextrose, 0.1 mg/mL, 22 °C, day 5) was “--”. For the same compound, the Visual observation ([2]; 5% dextrose, 0.1 mg/mL, 32 °C, day 0) was “--”, the Visual observation ([2]; 5% dextrose, 0.1 mg/mL, 32 °C, day 5) was “--” and the Visual observation ([2]; 5% dextrose, 1 mg/mL, 4 °C, day 0) was “--”. For the same compound, the Visual observation ([2]; 5% dextrose, 1 mg/mL, 22 °C, day 0) was “--”, the Visual observation ([2]; 5% dextrose, 1 mg/mL, 22 °C, day 5) was “--” and the Visual observation ([2]; 5% dextrose, 1 mg/mL, 32 °C, day 0) was “--”. The Visual observation ([2]; 5% dextrose, 1 mg/mL, 32 °C, day 5) was “--”, the “Visual observation, all samples” value ([2]; 5% dextrose) was “particulatefree” and the change in turbidity [3] was “did not result in any change during the study except for samples with noticeable precipitation”. The “decomposition products on HPLC chromatograms” value [4] was “No decomposition products appeared on the HPLC chromatograms”, the tubulin polymerization [5] was “markedly enhances all aspects of tubulin polymerization; initiation and elongation are more rapid” and the “inhibition of cell replication” value [6] was “potent inhibitor of cell replication in vitro”. The “activity in clinical trials” value [7] was “has shown activity against lymphoma, breast cancer, and possibly other tumors”, the “appearance after dilution in infusion fluids” value ([8]; clinical formulation diluted in intravenous infusion fluids) was “slight haze and, occasionally, a few minute particles” and the “physical stability in aqueous solutions” value ([8]; clinical formulation) was “physically unstable, and in aqueous solutions exhibits the formation of paclitaxel precipitate”.
